The subject of data set [1] is female Dutch belted rabbits. The data set can be described thus: Efficacy of a vaginal suppository in female rabbits. The data set is classed as in vivo, rabbit. The note with it: 100 mg. PEG suppository with 1 mg. compound, 15 minutes before breeding; 6 animals; after 12 days. As for the experimental part: Suppositories weighing 100 mg. are made to contain 1 mg. of sodium n-tetradecyl sulfate in a vehicle consisting of 35% polyethylene glycol 400, 35% polyethylene glycol 1540, and 30% polyethylene glycol 4000. A suppository is placed in the vagina of each of six female Dutch belted rabbits. After 15 minutes, each rabbit is bred to a buck of proven fertility and is injected with 100 I.U. of human chorionic gonadotropin. Each of six control animals are similarly treated using identical 100 mg. suppositories made from the same vehicle without the active compound. The animals are sacrificed after 12 days and are examined for embryos.

In data set [2] the test system is rabbits. Briefly: Efficacy in vivo, rods sutured into both uterine horns, bred weekly. Set-up: species or system rabbit. Conditions: five rabbits, rods 20% (W/W) in both uterine horns, bred weekly for 225 days. The text has this: (b) Five rabbits having rods containing 20% (W/W) sodium tetradecyl
sulfate (as described above) sutured into both uterine horns were bred

In data set [3] the test system is female rabbits. The data set can be described thus: Drug release rate and efficacy in vivo, intravaginal medicated rubber rings. Set-up: species or system rabbit. The note with it: vaginal ring 500 mg, 20% W/W; for Amount of sodium n-tetradecyl sulfate released. (μg. per day): per animal; for No. of Embryos (per animal): sulfate. As for the experimental part:
Dimethylpolysiloxane rods (4 mm. diameter) weighing 500 mg. and containing 20% (W/W) sodium n-tetradecyl sulfate (prepared by Example 3, Method B, lot no. 225-3) are formed into a circle of approximately 20 mm. diameter. The rings are inserted into the vagina of female rabbits and are held in place by sutures. The rabbits are bred either 7 or 32 days after insertion of the rings. Eleven days after breeding, the animals are sacrificed and the genital system examined for pregnancy. The rings are removed, washed, and extracted with methanol (24 hour continuous,) to remove the remaining sodium n-tetradecyl sulfate. The amount of active compound is determined by the methylene blue method, as described in Part A, above. The amount of sodium n-tetradecyl sulfate remaining in the circular rod is subtracted from the original amount present, and the difference is assumed to be the amount released over the time period.

For data set [4], the system named is Dutch belted virgin rabbits. Briefly: Antifertility effect by intrauterine administration (medicated rubber rod in uterine horn). In kind it is in vivo, rabbit. The note with it: 40-mg rod, 10% W/W, in right uterine horn; 8 uterine horns; 14 days after breeding. As for the experimental part: Dutch belted virgin rabbits, each weighing 3-4 pounds, are randomly selected and anesthetized with sodium pentobarbital ([…].) administered by IV drip. The uterus of each animal is exposed and a 40-mg. sample in the shape of a rod (3 mm. in diameter) of dimethylpolysiloxane rubber (as prepared in Example 3, Method A) containing 10% W/W of sodium tetradecyl sulfate is sutured into the right uterine horn at a random location in between the cervix and the uterotubal junction. The left horn is left untreated to serve as control. The rubber rod is placed into the uterine horn by passing a curved needle through it and through the uterine wall pulling the rod into the uterine lumen. The entry is closed by suturing. Animals (blank) are similarly treated using unmedicated dimethylpolysiloxane rubber to serve as a second group of controls. The animals are given 300,000 units of Duracillin®) per day (in four doses) and are allowed to recover for 14 days. Each animal is bred to a male of proven fertility and is immediately given a dose (IV) of appropoximately 100 units of human chorionic gonadotropin (HCG) to facilitate ovulation. Fourteen days after breeding, the animal are sacrificed by cervical dislocation and the uterine horns are examined for implanted embryos. The number of embryos per uterine horn are recorded. […]

Data set [5] deals with zona pellucida of rabbit ova. The data set can be described thus: Removal of zona pellucida from ova by acrosin, in vitro. The data set is classed as cell-based. Conditions: 10 μl. of 10 mg./ml. solution, 37° C.; sulfate. As to the method:
In the absence of sodium n-tetradecyl sulfate, complete removal of the cumulus oophorus and zona pellucida is observed.
Female rabbits are given 100 units of pregnant mares serum (PMS), IM, and 134 units of HCG, IV. After 13 hours the animals are sacrificed and the ovaries are excised. The ovaries are submerged in calcium-free Ringer's solution. Ova are removed and placed in 1 ml. of calcium-free Ringer's solution The solutions are all shaken vigorously for 5 to 10 minutes, which rids the ova of the cumulus oophorus and the corona radiata. Acrosin (isolated from boar sperm) (100 μl., of a solution containing 2000 U/ml. in 0.1 M sodium acetate and 0.02 M calcium chloride) is added to each of 10 ova. To each of 10 other ova in the same medium is added 10 μl. of solution of sodium n-tetradecyl sulfate (10 mg./ml.) in calcium-free Ringer's solution. To 10 other ova is added […]. of calcium-free Ringer's solution as a control. The solutions are all incubated at 37° C. The zona pellucida is observed at 15 minute intervals with an American Optical stereomicroscope. In the absence of sodium n-tetradecyl sulfate, the zona pellucida is completely removed.

Where “and” joins values, the source holds several entries; their conditions need not be identical. Identical values can stand only once.

As to `CCCCCCCCCCCCCCOS(=O)(=O)[O-].[Na+]` [n-tetradecyl, sodium n-tetradecyl sulfate], the “Embryos Per Animal (x + std. dev.)” value in data set [1] amounted to 0.5 ± 1.2. Also, the “Total No. of embryos” value in data set [1] is reported as 3; in data set [4], 0. Further, in data set [2], the pregnancies result was “without any pregnancies noted”. The “Amount of sodium n-tetradecyl sulfate released. (μg. per day)” value in data set [3] (after seven days) is 760 μg. per day and 470 μg. per day and 961 μg. per day and 277 μg. per day and 894 μg. per day; in data set [3] (after thirty-two days), 644 μg. per day and 522 μg. per day and 288 μg. per day. Further, the “No. of Embryos (per animal)” value in data set [3] (bred after seven days) was 0 and 8 and 5; in data set [3] (bred after thirty-two days), 0 and 3. Moreover, the “Embryos Horn (x ± S.D.)” value in data set [4] was found to be 0. For the same molecule, the “state of zona pellucida in presence of acrosin” value in data set [5] is listed as “remains substantially intact”.

The values are drawn from US4264577A, “Contraceptive methods and compositions” (Eli Lilly and Company, priority 1980, dated 1981).
